The first assay concerns the target T1, rabbit reticulocyte 15-LO (Oryctolagus cuniculus, UniProt P12530).
T1 construct: 15-LO is obtained from phenylhydrazine-treated rabbits and purified according to the method of Rapoport; from tissue; host or cells: reticulocytes of phenylhydrazine-treated rabbits
T1 sequence (P12530 1-663): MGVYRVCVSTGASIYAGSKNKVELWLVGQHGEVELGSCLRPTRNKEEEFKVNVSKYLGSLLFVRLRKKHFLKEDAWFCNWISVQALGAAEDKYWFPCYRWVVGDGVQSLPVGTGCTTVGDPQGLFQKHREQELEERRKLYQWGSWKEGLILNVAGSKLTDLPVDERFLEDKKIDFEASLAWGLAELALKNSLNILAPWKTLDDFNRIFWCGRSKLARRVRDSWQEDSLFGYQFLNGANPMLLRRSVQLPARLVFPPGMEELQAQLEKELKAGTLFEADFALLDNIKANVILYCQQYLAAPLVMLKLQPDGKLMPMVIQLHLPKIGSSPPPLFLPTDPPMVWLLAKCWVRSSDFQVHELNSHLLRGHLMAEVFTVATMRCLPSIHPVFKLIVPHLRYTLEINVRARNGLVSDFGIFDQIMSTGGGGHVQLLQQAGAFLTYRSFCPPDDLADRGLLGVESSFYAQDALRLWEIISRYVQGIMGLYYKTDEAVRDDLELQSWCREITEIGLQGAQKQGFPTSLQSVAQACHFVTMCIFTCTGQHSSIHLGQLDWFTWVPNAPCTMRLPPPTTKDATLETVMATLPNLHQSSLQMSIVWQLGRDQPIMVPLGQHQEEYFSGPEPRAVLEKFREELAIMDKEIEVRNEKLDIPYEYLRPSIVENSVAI
The experiment in a line: Rabbit Reticulocyte 15-LO Assay (H15LO). The assay is classed as biochemical. The note with it: 2 U rabbit reticulocyte 15-LO, 174 μM linoleic acid, 15 minutes at 4° C., 13-HODE quantitated. The procedure: In the H15LO assay, a test compound was incubated with 15-LO enzyme in the presence of the linoleic acid substrate. For example, 2 units (U) of rabbit reticulocyte 15-LO and 174 μM linoleic acid were incubated with a known amount of a test compound of the present invention for 15 minutes at 4° C. The total reaction volume was 100 μL in phosphate buffer saline (PBS) containing 0.2% sodium cholate. The reaction was stopped with 100 μL of mobile phase and […] of triethyl phosphite. […] 13-HODE was quantitated by comparing peak areas of individual samples with those from a standard curve generated using authentic 13-HODE.
15-LO is obtained from phenylhydrazine-treated rabbits and purified according to the method of Rapoport (Rapoport et al., European Journal of Biochemistry, 1979;96:545-561).
By IC50 is commonly meant the midpoint of a concentration-inhibition curve. Turning to `COc1ccc(-c2cc3cc(F)c(F)cc3[nH]2)cc1NS(=O)(=O)NC(=O)OCCCO` [Example 45, Carbamic acid, [[[5-(5,6-difluoro-IH-indol-2-yl)-2-methoxyphenyl]amino]-sulfonyl]-3-hydroxypropyl ester], inhibition was half-maximal at 0.08 µM (IC50). In turn, `CCCCCCCCCCCCOC(=O)NS(=O)(=O)Nc1cc(-c2cc3cc(F)c(F)cc3[nH]2)ccc1OC` [Example 1, Carbamic Acid, [[[5-(5,6-difluoro-IH-indol-2-yl)-2-methoxyphenyl]amino]-sulfonyl]-, Dodecyl Ester] registered an IC50 of 0.017 µM. The same measure, in the same setting: in the case of `COC(=O)COC(=O)NS(=O)(=O)Nc1cc(-c2cc3cc(F)c(F)cc3[nH]2)ccc1OC` [Example 43, Acetic Acid, [[[[[[5-(5,6-difluoro-1H-indol-2-yl)-2-methoxyphenyl]amino]-sulfonyl]amino]carbonyl]oxy]-, Methyl ester] it was 0.017 µM; in that of `COc1ccc(-c2cc3cc(F)c(F)cc3[nH]2)cc1NS(=O)(=O)NC(=O)OC(C)(C)C` [Example 53, Carbamic Acid, [[[5-(5,6-difluoro-indol-2-yl)-2-methoxyphenyl]amino]-sulfonyl]-, 1,1-dimethylethyl ester], 0.023 µM.

In another assay the target is T2, human 15-LO (Homo sapiens, UniProt P16050).
T2 construct: made in house; host or cells: Sf9 insect cells (baculovirus, Bac-to-Bac)
T2 sequence (P16050 1-662): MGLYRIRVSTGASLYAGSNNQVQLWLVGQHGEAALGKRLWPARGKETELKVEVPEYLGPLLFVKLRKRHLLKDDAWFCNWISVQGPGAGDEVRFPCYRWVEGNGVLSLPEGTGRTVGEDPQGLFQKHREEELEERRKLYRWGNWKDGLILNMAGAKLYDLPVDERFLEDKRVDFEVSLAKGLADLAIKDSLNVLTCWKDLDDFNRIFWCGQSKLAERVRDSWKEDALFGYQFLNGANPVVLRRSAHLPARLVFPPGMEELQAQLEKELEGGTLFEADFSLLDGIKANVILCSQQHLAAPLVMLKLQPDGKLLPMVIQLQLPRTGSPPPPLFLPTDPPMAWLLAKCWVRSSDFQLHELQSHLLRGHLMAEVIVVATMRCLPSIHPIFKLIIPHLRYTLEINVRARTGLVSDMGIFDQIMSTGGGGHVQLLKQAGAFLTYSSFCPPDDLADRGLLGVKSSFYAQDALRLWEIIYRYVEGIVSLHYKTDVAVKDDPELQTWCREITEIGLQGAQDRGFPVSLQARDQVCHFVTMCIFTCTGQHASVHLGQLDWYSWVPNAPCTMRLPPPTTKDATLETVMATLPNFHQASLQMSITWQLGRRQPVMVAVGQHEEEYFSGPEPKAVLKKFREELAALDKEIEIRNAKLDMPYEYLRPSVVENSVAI
Nature of the assay: Human Lysate 15-LO Assay (HUM15LO). The assay is classed as biochemical. Particulars: recombinant human 15-LO, 174 μM linoleic acid, 15 minutes at 4° C., 13-HODE quantitated. The method, then:
In the HUM15LO assay, a test compound of the present invention was incubated with 15-LO enzyme in the presence of the linoleic acid substrate. For example, a known amount of a test compound of the present invention, 100 μL of human 15-LO, and 174 μM linoleic acid in PBS containing 0.2% sodium cholate were incubated for 15 minutes at 4° C. The reaction was stopped with 100 μL of mobile phase and 10 μL of triethyl phosphite. […] 13-HODE was quantitated by comparing peak areas of individual samples with those from a standard curve generated using authentic 13-HODE. The test reaction is compared to a control reaction, which is identical to the test reaction except no test compound of the present invention is present Percent inhibition is calculated as the amount of 13-HODE produced by the test reaction divided by the amount of 13-HODE produced by the control reaction, expressed as a percent.
Human 15-LO was generated in a recombinant 15-lipoxygenase bacculovirus expression system, using Gibco/BRL/Life Technologies' Bac-to-Bac expression reagents; T4 DNA ligase, Kanamycin, Gentamicin, tetracycline, penicillin, streptomycin, Bluo-gal, IPTG, DH10Bac competent cells, SOC, LB medium, Sf-900 II SFM media, Sf9 insect cells, Cell Fectin, and EcoRI, BamHI and KpnI restriction enzymes.
`COc1ccc(C(=O)Nc2ccc(F)c(F)c2)cc1NS(=O)(=O)NC(=O)Nc1cc(C(F)(F)F)cc(C(F)(F)F)c1` [Example 62, Benzamide, 3-[[[[[[3,5-bis(trifluoromethyl)phenyl]amino]-carbonyl]amino]-sulfonyl]amino]-N-(3,4-difluorophenyl)-4-methoxy]: the IC50 came to 0.173 µM. On to `COc1ccc(C(=O)Nc2ccc(F)c(F)c2)cc1NS(=O)(=O)NC(=O)OCCCBr` [Example 9, Carbamic Acid, [[[5-[[(3,4-difluorophenyl)amino]carbonyl]-2-methoxyphenyl]amino]sulfonyl]-, 3-bromopropyl ester], for which the 50% inhibitory concentration (IC50) worked out at 0.154 µM. Regarding `COc1ccc(-c2cc3cc(F)c(F)cc3[nH]2)cc1NS(=O)(=O)NC(=O)OCCCO` [Example 45, Carbamic acid, [[[5-(5,6-difluoro-IH-indol-2-yl)-2-methoxyphenyl]amino]-sulfonyl]-3-hydroxypropyl ester], the IC50 came to 0.133 µM.

Consider `CCCCCCCCCCCCOC(=O)NS(=O)(=O)Nc1cc(-c2cc3cc(F)c(F)cc3[nH]2)ccc1OC` [Example 1, Carbamic Acid, [[[5-(5,6-difluoro-IH-indol-2-yl)-2-methoxyphenyl]amino]-sulfonyl]-, Dodecyl Ester], for which the IC50 was determined as 0.006 µM. Consider `COC(=O)COC(=O)NS(=O)(=O)Nc1cc(-c2cc3cc(F)c(F)cc3[nH]2)ccc1OC` [Example 43, Acetic Acid, [[[[[[5-(5,6-difluoro-1H-indol-2-yl)-2-methoxyphenyl]amino]-sulfonyl]amino]carbonyl]oxy]-, Methyl ester], for which the 50% inhibitory concentration (IC50) was 0.03 µM. As for `COc1ccc(C(=O)Nc2ccc(F)c(F)c2)cc1NS(=O)(=O)NC(=O)OCCN1CCCC1` [Example 4, Carbamic Acid, [[[5-[[(3,4-difluorophenyl)amino]carbonyl]-2-methoxyphenyl]amino]-suffonyl]-, 2-(1-pyrrolidinyl)ethyl ester], the half-inhibitory concentration (IC50) was determined as 0.144 µM. In the case of `COc1ccc(C(=O)Nc2ccc(F)c(F)c2)cc1NS(=O)(=O)NC(=O)Nc1ccccc1` [Example 67, Benzamide, N-(3,4-difluorophenyl)-4-methoxy-3-[[[[(phenylamino)carbonyl]-amino]sulfonyl]amino]], the IC50 was 0.182 µM. The same measure, in the same setting: for `COc1ccc(C(=O)Nc2ccc(F)c(F)c2)cc1NS(=O)(=O)NC(=O)OCCCN(C)C` [Example 3, Carbamic Acid, [[(5-[[(3,4-diflu rophenyl)amino]carbonyl]-2-methoxyphenyl]amino]sulfonyl]-, 3-(dimethylamino)propyl Ester] the value was 0.408 µM. `CCS(=O)(=O)CCOC(=O)NS(=O)(=O)Nc1cc(C(=O)Nc2ccc(F)c(F)c2)ccc1OC` [Example 8, Carbamic Acid, [[[5-[[(3,4-difluorophenyl)amino]carbonyl]-2-methoxyphenyl]amino]sulfonyl]-, 2-(ethylsulfonyl)ethyl ester]: the IC50 was 0.312 µM. Consider `COc1ccc(C(=O)Nc2ccc(F)c(F)c2)cc1NS(=O)(=O)NC(=O)OCCN(C)C` [Example 5, Carbamic Acid, [[[5-[[(3,4-difluorophenyl)amino]carbonyl]-2-methoxyphenyl]amino]sulfonyl]-, 2-(dimethylamino)ethyl ester], for which the IC50 was 0.24 µM. Still for that read-out and setting: in the case of “Carbamic Acid, [[[5-[[(3,4-difluorophenyl)amino]carbonyl]-2-methoxyphenyl]amino]sulfonyl]methyl-, Ethyl ester [Example 69]” it was 0.154 µM; in that of `CCOC(=O)NS(=O)(=O)Nc1cc(C(=O)Nc2ccc(F)c(F)c2)ccc1OC` [Example 19, Carbamic Acid, [[[5-[[(3,4-difluorophenyl)amino]carbonyl]-2-methoxyphenyl]amino]sulfonyl]-, Ethyl Ester], 0.339 µM; in that of `COc1ccc(C(=O)Nc2ccc(F)c(F)c2)cc1NS(=O)(=O)NC(=O)Nc1cccc([N+](=O)[O-])c1` [Example 60, Benzamide, N-(3,4-difluorophenyl)-4-methoxy-3-[[[[[(3-nitrophenyl) -amino]carbonyl]amino]sulfonyl]amino]], 0.025 µM. Still for that read-out and setting: for `COc1ccc(C(=O)Nc2ccc(F)c(F)c2)cc1NS(=O)(=O)NC(=O)Nc1ccccc1` [Example 18, Benzamide, N-(3,4-difluorophenyl)-4-methoxy-3-[[[[(phenylamino)carbonyl]-amino]sulfonyl]amino]] the value was 0.142 µM.

For `COc1ccc(C(=O)Nc2ccc(F)c(F)c2)cc1NS(=O)(=O)NC(=O)OCCc1cccs1` [Example 7, Carbamic Acid, [[[5-[[(3,4-difluorophenyl)amino]carbonyl]-2-methoxyphenyl]amino]sulfonyl]-, 2-(2-thienyl)ethyl ester], the IC50 stood at 0.079 µM. With `COc1ccc(NS(=O)(=O)NC(=O)Nc2cc(C(=O)Nc3ccc(F)c(F)c3)ccc2OC)cc1` [Example 20, Benzamide, N-(3,4-difluorophenyl)-4-methoxy-3-[[[[[(4-methoxyphenyl)-amino]sulfonyl]amino]carbonyl]amino]], the IC50 is 1.05 µM. `CCOC(=O)NS(=O)(=O)Nc1cc(-c2cc3ccccc3[nH]2)ccc1OC` [Example 26, Carbamic Acid, [[[5-(IH-indol-2-yl)-2-methoxyphenyl]amino]sulfonyl]-, Ethyl Ester]: the IC50 was determined as 0.63 µM. Regarding `COc1ccc(C(=O)Nc2ccc(F)c(F)c2)cc1NS(=O)(=O)NC(=O)Nc1ccc(N)cc1` [Example 63, Benzamide, 3-[[[[[(4-aminophenyl)amino]carbonyl]amino]sulfonyl]amino]-N-(3,4-difluorophenyl)-4-methoxy-, mono(trifluoroacetate)], the IC50 came to 0.214 µM.

As to `COc1ccc(C(=O)Nc2ccc(F)c(F)c2)cc1NS(=O)(=O)NC(=O)OCCN1CCOCC1` [Example 2, Carbamic Acid, [[[5[[(3,4-difluorophenyl)amino]carbonyl]-2-methoxyphenyl]-amino]sulfonyl]-, 2-(4morpholinyl)ethyl ester], the IC50 worked out at 0.384 µM.

(Values after patent US6906094B2, “1,2,4-tribsubstituted benzenes as inhibitors of 15-lipoxygenase” (Warner-Lambert Company, priority 2000, dated 2005).)
